How the values were obtained:
Assay type in all cases: cell-based
[1] = tested on: IL3000 T. congolense (drug sensitive) strain; experiment: In vitro Alamar Blue 72 h drug sensitivity assay for T. congolense; conditions: Trypanosoma congolense; bloodstream form, 69 h + 3 h resazurin, 34° C.; classes A-C; read-out: IC50: I Org. Growth T. congolense IL-3000, 3 d
Summary of the method: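 Bloodstream-form trypanosomes in HMI medium with 20% bovine serum, exposed to compound for 69 h at 34 °C, 5% CO2, then resazurin for 3 h more. Fluorescence read at 536/588 nm. IC50 from 11-point sigmoidal dose-response curves, at least three independent runs.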

[2] = tested on: luciferase-expressing L. major parasites developing intracellularly inside RAW 264.7 macrophages; experiment: Leishmania major intracellular amastigote assay in RAW 264.7 macrophages (luciferase); conditions: RAW264.7, 96 hours, read-out: IC50: I Org. intracellular amastigote Growth L. major, 4 d
Summary of the method: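 RAW 264.7 macrophages infected overnight with luciferase-expressing L. major promastigotes, washed of extracellular parasites, then exposed to two-fold compound dilutions (final 0.5-10,000 ng/ml) for 96 h at 37° C, 5% CO2. Luciferin luminescence after 30 min; IC50 by sigmoidal variable-slope regression.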

[3] = tested on: TdTomato-modified T. cruzi (CL strain) in Vero cells; experiment: In vitro IC50 measurement of T. cruzi amastigote killing using TdTomato-modified T. cruzi (CL strain); conditions: Trypanosoma cruzi, 72 h, fluorescence, read-out: IC50: I Org. amastigote Growth T. cruzi CL TdTomato, 3 d
Summary of the method: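 Vero cells were infected with tdTomato-expressing CL-strain parasites and dosed at 5 uM–5 nM. Fluorescence (ex 544/em 612 nm) was read at day 0 and again after 72 h at 37 °C, with day 0 values subtracted. IC50 and IC90 came from nonlinear regression.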

| SMILES | IC50 [1] [µM] | IC50 [2] [µM] | IC50 [3] [µM] |
| --- | --- | --- | --- |
| COc1ccc(-n2cc(C(=O)Nc3ccc4c(c3)B(O)OC4C)nn2)cc1 (stereo not drawn) [Example 22, N-(1-hydroxy-3-methyl-1,3-dihydrobenzo[c][1,2]oxaborol-6-yl)-1-(4-methoxyphenyl)-1H-1,2,3-triazole-4-carboxamide] | 0.1 to 0.3 | ≤ 1 | < 0.6 |
| COc1ccc(-n2cc(C(=O)Nc3ccc4c(c3)B(O)OC4)nn2)cc1 [Example 21, N-(1-hydroxy-1,3-dihydrobenzo[c][1,2]oxaborol-6-yl)-1-(4-methoxyphenyl)-1H-1,2,3-triazole-4-carboxamide] | < 0.1 | ≤ 1 | < 0.6 |
| O=C(Nc1ccc2c(c1)B(O)OC21CCC1)c1cn(-c2ccc(F)cc2)nn1 [Example 7, 1-(4-fluorophenyl)-N-(1-hydroxy-1H-spiro[benzo[c][1,2]oxaborole-3,1′-cyclobutan]-6-yl)-1H-1,2,3-triazole-4-carboxamide] | 0.31 to 100 | 1.1 to 9.9 | 1.1 to 10 |
| Cc1c(C(=O)Nc2ccc3c(c2)B(O)OC3)nnn1-c1cccnc1 [Example 93, N-(1-hydroxy-1,3-dihydrobenzo[c][1,2]oxaborol-6-yl)-5-methyl-1-(pyridin-3-yl)-1H-1,2,3-triazole-4-carboxamide] | 0.1 to 0.3 | 10 to 50 | 1.1 to 10 |
| CC1OB(O)c2cc(NC(=O)c3cn(-c4ccc(F)cc4)nn3)ccc21 (stereo not drawn) [Example 5] | 0.1 to 0.3 | ≤ 1 | 0.6 to 1 |
| O=C(Nc1ccc2c(c1)B(O)OC21CCC1)c1cn(-c2ccccc2)nn1 [Example 3, N-(1-hydroxy-1H-spiro[benzo[c][1,2]oxaborole-3,1′-cyclobutan]-6-yl)-1-phenyl-1H-1,2,3-triazole-4-carboxamide] | 0.1 to 0.3 | ≤ 1 | 1.1 to 10 |
| Cc1ccc(-n2nnc(C(=O)Nc3ccc4c(c3)B(O)OC43CCC3)c2C)cc1 [Example 16, N-(1-hydroxy-1H-spiro[benzo[c][1,2]oxaborole-3,1′-cyclobutan]-6-yl)-5-methyl-1-(p-tolyl)-1H-1,2,3-triazole-4-carboxamide] | 0.31 to 100 | 10 to 50 | 1.1 to 10 |

— patent US11691992B2 (Anacor Pharmaceuticals, Inc., priority 2017, dated 2023)
